Experimental data taken from article PMC9317718 (Molecules, 2022).

Legend:
in vitro [1] = conditions: for CLint: microsomes
Description: Km is defined as the characteristic constant of the enzyme, which represent the […] (Vmax). The values of Vmax and Km are based on the nonlinear regression analysis of the Michaelis-Menten equation, V = Vmax × S/(Km + S). The kinetic parameters were adopted through the following parameters: S, Vmax, and V. All of these parameters represented the substrate concentration, the maximum velocity of metabolism, and the velocity of metabolism, respectively. CLint (the different ability of the organism in eliminating the particular chemical substances) is defined as Vmax/Km, which reflected the different ability of the organism in eliminating the particular chemical substances.

CYP3A4 [2] = biological target: T1, CYP3A4 (Homo sapiens, UniProt P08684); experiment: Degradation in single recombinant CYP3A4; format: in vitro ADME; set-up: purchased RILD (Research Institute for Liver Diseases Co., Ltd., Shanghai, China); conditions: 5 μM compound, single enzyme CYP3A4; for speed constant k in CYP3A4: t in min; for half-life at 5 μM: human, recombinant CYP3A4, pH 7.4, read-out: t1/2 in CYP3A4
Target sequence in this assay (P08684 whole entry): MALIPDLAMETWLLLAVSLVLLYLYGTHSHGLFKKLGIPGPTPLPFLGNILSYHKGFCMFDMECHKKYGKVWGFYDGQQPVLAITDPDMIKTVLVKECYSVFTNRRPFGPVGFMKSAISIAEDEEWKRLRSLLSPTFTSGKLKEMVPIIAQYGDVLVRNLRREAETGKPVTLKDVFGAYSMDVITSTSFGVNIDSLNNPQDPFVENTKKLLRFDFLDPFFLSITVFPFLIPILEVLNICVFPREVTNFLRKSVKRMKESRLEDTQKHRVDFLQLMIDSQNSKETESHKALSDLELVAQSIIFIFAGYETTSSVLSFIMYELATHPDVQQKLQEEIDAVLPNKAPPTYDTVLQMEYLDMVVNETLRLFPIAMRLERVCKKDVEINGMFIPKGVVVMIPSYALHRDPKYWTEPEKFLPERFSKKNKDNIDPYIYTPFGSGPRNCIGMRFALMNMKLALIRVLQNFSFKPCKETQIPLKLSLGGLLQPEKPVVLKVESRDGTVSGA

CYP3A4 [3] = conditions: rat, in vivo
CYP2C19 [4] = biological target: T2, CYP2C19 (Homo sapiens, UniProt P33261); experiment: in vitro; conditions: recombinant enzyme, pH 7.4
T2 sequence (P33261 whole entry): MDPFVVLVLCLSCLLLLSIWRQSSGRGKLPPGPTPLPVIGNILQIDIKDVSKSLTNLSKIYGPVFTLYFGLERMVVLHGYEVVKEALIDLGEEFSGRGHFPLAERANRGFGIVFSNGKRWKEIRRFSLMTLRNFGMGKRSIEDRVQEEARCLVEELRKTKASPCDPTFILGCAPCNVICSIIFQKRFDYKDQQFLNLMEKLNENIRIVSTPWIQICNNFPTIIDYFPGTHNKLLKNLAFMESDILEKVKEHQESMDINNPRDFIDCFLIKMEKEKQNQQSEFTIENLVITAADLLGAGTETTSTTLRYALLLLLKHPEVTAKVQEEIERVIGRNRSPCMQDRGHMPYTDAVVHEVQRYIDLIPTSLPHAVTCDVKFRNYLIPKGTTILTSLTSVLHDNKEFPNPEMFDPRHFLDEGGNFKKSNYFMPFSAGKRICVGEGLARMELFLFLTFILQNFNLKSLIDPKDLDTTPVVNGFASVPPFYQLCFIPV

CYP2C19 [5] = biological target: T2, CYP2C19; conditions: recombinant enzyme, 5 μM, pH 7.4
in vitro [6] = conditions: male, Sprague-Dawley, rat, microsomes, pH 7.4
CYP2E1 [7] = biological target: T3, CYP2E1 (Homo sapiens, UniProt P05181); experiment: biochemical
T3 sequence (P05181 whole entry): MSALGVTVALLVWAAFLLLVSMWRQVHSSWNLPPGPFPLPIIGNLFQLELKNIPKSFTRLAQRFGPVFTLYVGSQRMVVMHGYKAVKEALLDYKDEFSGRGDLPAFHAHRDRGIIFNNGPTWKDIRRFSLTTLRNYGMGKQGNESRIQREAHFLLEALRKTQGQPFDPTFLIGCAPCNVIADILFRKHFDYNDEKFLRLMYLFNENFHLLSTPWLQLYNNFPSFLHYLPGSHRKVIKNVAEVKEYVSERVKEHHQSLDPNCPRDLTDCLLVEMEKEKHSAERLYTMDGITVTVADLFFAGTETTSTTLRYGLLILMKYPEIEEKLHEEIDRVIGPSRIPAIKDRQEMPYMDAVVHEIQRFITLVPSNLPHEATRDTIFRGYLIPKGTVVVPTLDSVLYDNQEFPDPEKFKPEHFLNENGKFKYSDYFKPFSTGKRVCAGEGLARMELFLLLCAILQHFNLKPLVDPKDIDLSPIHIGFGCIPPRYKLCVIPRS
Description: (§1) The mixed probe substrate consisted of testosterone 0.01 mM for CYP3A4, phenacetin 0.02 mM for CYP1A2, chlorzoxazone 0.02 mM for CYP2E1, and omeprazole 0.01 mM for CYP2C19, respectively. […] Other procedure was accorded to above step of 2.6 “Microsomal incubation conditions”.

CYP2C19 [8] = biological target: T2, CYP2C19; experiment: biochemical
Description: as §1

in vitro [9] = conditions: human, microsomes, pH 7.4
CYP1A2 [10] = biological target: T4, CYP1A2 (Homo sapiens, UniProt P05177); experiment: Inhibition of CYP1A2 activity in vitro (probe phenacetin); format: in vitro ADME; conditions: compound 0-80 μM; probe phenacetin 0.02 mM
T4 sequence (P05177 2-516): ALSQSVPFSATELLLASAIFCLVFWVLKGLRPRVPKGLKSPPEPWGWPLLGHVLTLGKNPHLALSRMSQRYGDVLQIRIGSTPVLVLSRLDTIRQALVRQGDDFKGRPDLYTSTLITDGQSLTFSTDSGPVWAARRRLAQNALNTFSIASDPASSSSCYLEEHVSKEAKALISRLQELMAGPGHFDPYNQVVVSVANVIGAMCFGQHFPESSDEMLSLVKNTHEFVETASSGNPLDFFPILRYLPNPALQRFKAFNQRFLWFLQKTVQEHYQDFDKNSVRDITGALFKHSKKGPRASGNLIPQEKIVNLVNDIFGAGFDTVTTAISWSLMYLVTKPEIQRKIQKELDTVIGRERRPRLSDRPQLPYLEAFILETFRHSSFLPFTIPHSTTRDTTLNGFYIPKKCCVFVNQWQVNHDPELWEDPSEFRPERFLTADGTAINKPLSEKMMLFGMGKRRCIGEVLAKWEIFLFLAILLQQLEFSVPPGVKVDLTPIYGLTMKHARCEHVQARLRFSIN
Description: as §1

CYP2E1 [11] = biological target: T3, CYP2E1; experiment: in vitro; conditions: recombinant enzyme, pH 7.4
CYP1A2 [12] = biological target: T5, CYP1A2 (Rattus norvegicus, UniProt P04799); conditions: in vivo
T5 sequence (P04799 1-513): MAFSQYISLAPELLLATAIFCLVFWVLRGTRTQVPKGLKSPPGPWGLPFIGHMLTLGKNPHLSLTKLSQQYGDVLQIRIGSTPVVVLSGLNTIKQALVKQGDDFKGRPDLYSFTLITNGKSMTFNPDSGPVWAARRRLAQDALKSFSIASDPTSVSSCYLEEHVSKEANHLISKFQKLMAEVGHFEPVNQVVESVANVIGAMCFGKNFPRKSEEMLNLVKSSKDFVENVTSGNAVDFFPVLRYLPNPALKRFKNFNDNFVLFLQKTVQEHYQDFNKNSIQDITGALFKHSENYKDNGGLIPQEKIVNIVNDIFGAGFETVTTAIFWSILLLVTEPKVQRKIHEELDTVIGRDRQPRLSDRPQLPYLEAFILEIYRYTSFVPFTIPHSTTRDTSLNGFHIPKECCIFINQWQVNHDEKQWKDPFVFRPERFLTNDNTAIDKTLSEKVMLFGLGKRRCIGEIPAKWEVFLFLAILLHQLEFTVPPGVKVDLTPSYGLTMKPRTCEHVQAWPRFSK

CYP3A4 [13] = biological target: T1, CYP3A4; experiment: in vitro; conditions: pH 7.4, probe testosterone 0.01 mM
Target sequence in this assay (P08684 2-503): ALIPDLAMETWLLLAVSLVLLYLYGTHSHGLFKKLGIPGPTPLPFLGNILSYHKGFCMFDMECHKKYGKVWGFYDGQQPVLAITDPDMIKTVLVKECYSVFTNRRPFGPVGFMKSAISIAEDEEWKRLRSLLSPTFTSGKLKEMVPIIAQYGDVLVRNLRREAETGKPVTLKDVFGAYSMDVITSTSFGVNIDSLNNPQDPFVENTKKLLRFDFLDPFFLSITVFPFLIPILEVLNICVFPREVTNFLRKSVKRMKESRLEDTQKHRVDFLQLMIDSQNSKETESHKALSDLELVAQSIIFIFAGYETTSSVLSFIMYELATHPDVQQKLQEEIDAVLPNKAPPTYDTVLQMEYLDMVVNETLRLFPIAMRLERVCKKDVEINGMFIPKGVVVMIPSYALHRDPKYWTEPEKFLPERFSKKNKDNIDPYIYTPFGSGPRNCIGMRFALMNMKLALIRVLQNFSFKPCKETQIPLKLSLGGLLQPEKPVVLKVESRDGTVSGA

CYP2E1 [14] = biological target: T3, CYP2E1; conditions: recombinant enzyme, 5 μM, pH 7.4
CYP1A2 [15] = biological target: T6, CYP1A2 (Homo sapiens, UniProt P05177); experiment: Degradation in single recombinant CYP1A2; format: in vitro ADME; conditions: 5 μM compound, single enzyme CYP1A2; for speed constant k in CYP1A2: t in min; for half-life at 5 μM: human, recombinant CYP1A2, pH 7.4, read-out: t1/2 in CYP1A2
T6 construct: purchased RILD (Research Institute for Liver Diseases Co., Ltd., Shanghai, China)
T6 sequence (P05177 whole entry): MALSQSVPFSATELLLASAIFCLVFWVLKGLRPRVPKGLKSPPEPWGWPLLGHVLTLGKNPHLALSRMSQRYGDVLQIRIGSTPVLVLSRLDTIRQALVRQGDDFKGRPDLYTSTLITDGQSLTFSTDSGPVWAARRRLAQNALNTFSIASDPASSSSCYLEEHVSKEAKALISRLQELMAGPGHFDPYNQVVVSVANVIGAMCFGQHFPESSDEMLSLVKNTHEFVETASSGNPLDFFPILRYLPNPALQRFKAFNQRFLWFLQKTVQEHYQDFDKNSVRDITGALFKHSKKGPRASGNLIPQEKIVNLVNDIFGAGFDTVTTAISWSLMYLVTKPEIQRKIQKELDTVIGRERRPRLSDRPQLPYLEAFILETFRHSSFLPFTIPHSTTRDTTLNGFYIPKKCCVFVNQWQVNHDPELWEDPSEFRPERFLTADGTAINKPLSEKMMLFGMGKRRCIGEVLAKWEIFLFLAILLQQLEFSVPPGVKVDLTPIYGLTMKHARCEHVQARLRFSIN

CYP2C19 [16] = conditions: rat liver after 7-days i.g. treatment, low-, medium- and high-dose groups
Description: To investigate the molecular mechanisms in the activity of the CYP enzymes, the level of CYP protein in the liver of rats was examined.
In this study, the grouping and administration methods were as described in the step of “Pharmacokinetic study of the probe substrate in vivo”. On the 8th day, the blood was allowed to drain through the aorta and the liver was excised quickly, […]. The liver tissue was stored at −80 °C until analysis.
Then, a piece of the liver tissue was separately homogenized and lysed in RIPA buffer with 1% proteinase inhibitor phenylmethylsulfonyl fluoride (PMSF). […] The protein levels were quantified by a BCA Assay Kit. The samples were boiled at 100 °C for 10 min. Equal amounts of protein lysates were separated on 10% SDS-polyacrylamide gels by electrophoresis and then transferred onto nitrocellulose membranes. The membranes were blocked in 5% non-fat milk. […] In addition, images were captured using an Odyssey Infra-red Imaging System v3.0.16 (LI-COR Biosciences, Lincoln, NE, USA), and quantified by densitometry scanning using ImageJ Analysis software (National Institutes of Health, Bethesda, MD, USA).

Row | SMILES | Km at 15 min (in vitro [1]; Sprague-Dawley, rat, pH 7.4) [µM] | Km at 15 min (in vitro [1]; human) [µM] | CLint (in vitro [1]; human) | CLint (in vitro [1]; rat) | speed constant k in CYP3A4 (CYP3A4 [2]) | half-life at 5 μM (CYP3A4 [2]) [h] | metabolic rate of midazolam with increasing dose of compound (CYP3A4 [3]) | half-life at 5 μM (CYP2C19 [4]) [h] | speed constant k in CYP2C19 (CYP2C19 [5]) | half-life (in vitro [6]) [h] | IC50 (CYP2E1 [7]) [µM] | IC50 (CYP2C19 [8]) [µM] | half-life (in vitro [9]) [h] | IC50 (CYP1A2 [10]) [µM] | half-life at 5 μM (CYP2E1 [11]) [h] | metabolic rate of phenacetin with increasing dose of compound (CYP1A2 [12]) | IC50 at 120 min (CYP3A4 [13]) [µM] | speed constant k in CYP2E1 (CYP2E1 [14]) | speed constant k in CYP1A2 (CYP1A2 [15]) | half-life at 5 μM (CYP1A2 [15]) [h] | also measured
1 | CC(C)=C1C/C=C(\C)CC/C=C(\C)CC1=O [germacrone] | 49.6 ± 11.1 | 44.8 ± 5.47 | 0.3298 mL/min/(mg of Protein) | 0.2763 mL/min/(mg of Protein) | 0.019 ± 0.0064 | 0.608 | increased | 0.963 | 0.012 ± 0.0032 | 0.3 | > 80 | 17.8 | 0.273 | 78.1 | 1.16 | increased | 3.57 | 0.01 ± 0.0017 | 0.008 ± 0.001 | 1.44 | 
2 | COc1cc(/C=C/C(=O)CC(=O)/C=C/c2ccc(O)c(OC)c2)ccc1O [curcumin] | 48.5 ± 8.27 | 16.6 ± 4.3 | 0.2435 mL/min/(mg of Protein) | 0.3226 mL/min/(mg of Protein) | 0.018 ± 0.0035 | 0.642 | decreased | 1.05 | 0.011 ± 0.0017 | 0.372 | > 80 | 11.9 | 2.89 | > 80 | 1.16 | decreased | 24.3 | 0.01 ± 0.0024 | 0.0023 ± 0.0006 | 5.02 | protein level of CYP2C19 vs control in vivo (CYP2C19 [16]): decreased
